According to patent publication US7105296B2, “Genes encoding Baeyer-Villiger monooxygenases” (E. I. du Pont de Nemours and Company, priority 2001, dated 2006):

How the values were obtained:
Assay in all cases: chnB monooxygenase activity by NADPH oxidation at 340 nm
Assay type in all cases: biochemical
[1] = test system: Acidovorax sp. CHX chnB monooxygenase; settings: purified over-expressed enzyme; 1.25 mM substrate; pH 7.5; ND = No Activity Detected
Excerpt: (§1) Following amplification, the chnB gene fragments were cloned into pTrcHis-TOPO TA vectors with either an N-terminal tail or C-terminal tail, as provided by the vector sequence (N-terminal tail for Brevibacterium sp. HCU, Rhodococcus sp. phi1, Rhodococcus sp. phi2, and Arthrobacter sp. BP2 monooxygenases; C-terminal tail for Acinetobacter sp. SE19 and Acidovorax sp. CHX monooxygenases). These vectors were transformed into E. coli, with transformants grown in Luria-Bertani broth supplemented with ampicillin (100 ug/ml) and riboflavin (0.1 ug/ml) at 30° C. until the absorbance at 600 nm (A600) reached 0.5. When the A600 was reached, the temperature was shifted to 16° C.
(§2) The encoded monooxygenase sequences were expressed upon addition of IPTG to the culture media, 30 min after the temperature shift to 16° C. The cultures were grown further overnight (14 hrs) and harvested by centrifugation in a cold centrifuge. The cells were treated with lysozyme (100 mg/ml) for 30 min on ice and sonicated. Following sonication, cell extracts were centrifuged and the supernatant was equilibrated with Ni-NTA resin (Qiagen, Valencia, Calif.) for 1 hr at 4° C. Protein bound resin was washed successively with increasing concentrations of imidazole buffer until the protein of interest was released from the resin. The purified protein was concentrated and the buffer exchanged to remove the imidazole. The protein concentration was adjusted to 1 ug/ml.
(§3) Compounds were selected on the basis of previous observations by van der Werf (J. Biochem. 347:693–701 (2000)) and Miyamoto et al. (Biochimica et Biophysica Acta 1251: 115–124 (1995)) and by searches for the ketone substructure.
(§4) All compounds were obtained from Sigma-Aldrich with only two exceptions. Levoglucosenone was obtained from Toronto Research Chemicals, Inc. and dimethyl-2-piperidone was prepared according to U.S. Pat. No. 6,077,955. For enzyme assays all compounds were dissolved to a concentration of 0.1 M in methanol, with the exceptions of norcamphor (dissolved in ethyl acetate), cyclododecanone, cycltridecanone and cyclopentadecanone (dissolved in propanol), and levoglucosenone (dissolved with acetone).
(§5) The monooxygenase activity of each over-expressed enzyme was assayed spectrophotometrically at 340 nm by monitoring the oxidation of NADPH. Assays were performed in individual quartz cuvettes, with a pathlength of 1 cm. […] An Ultrospec 4000 (Pharmacia Biotech, Cambridge, England) was used to read the absorbance of the samples over a two to ten minute time period and the SWIFT (Pharmacia Biotech) program was used to calculate the slope of the reduction in absorbance over time. For the Brevibacterium sp. […] Monooxygenase activity of each over-expressed enzyme is shown in Table 5, with respect to each ketone substrate. The specific activity values listed are given in umol/min/mg. The notation “ND” refers to “No Activity Detected”.

[2] = target: T1, Acinetobacter sp. SE19 chnB monooxygenase (Acinetobacter sp., UniProt Q9F7E4); settings: purified over-expressed enzyme; 1.25 mM substrate; pH 7.5; ND = No Activity Detected
T1 construct: expression in E. coli of isolated full length BVMO genes from Brevibacterium sp; HCU, Acinetobacter SE19; C-terminal tail provided by the pTrcHis-TOPO vector (C); made in house; host or cells: E. coli
Excerpt: as §1, §2, §3, §4, §5

[3] = test system: Rhodococcus sp. phi1 chnB monooxygenase; settings: purified over-expressed enzyme; 1.25 mM substrate; pH 7.5; ND = No Activity Detected
Excerpt: as §1, §2, §3, §4, §5

[4] = test system: Rhodococcus sp. phi2 chnB monooxygenase; settings: purified over-expressed enzyme; 1.25 mM substrate; pH 7.5; ND = No Activity Detected
Excerpt: as §1, §2, §3, §4, §5

[5] = test system: Arthrobacter sp. BP2 chnB monooxygenase; settings: purified over-expressed enzyme; 1.25 mM substrate; pH 7.5; ND = No Activity Detected
Excerpt: as §1, §2, §3, §4, §5

[6] = test system: Brevibacterium sp. HCU chnB1 monooxygenase; settings: purified over-expressed enzyme; 1.25 mM substrate; pH 7.5; ND = No Activity Detected
Excerpt: as §1, §2, §3, §4, §5

[7] = test system: Brevibacterium sp. HCU chnB2 monooxygenase; settings: purified over-expressed enzyme; 1.25 mM substrate; pH 7.5; rates multiplied by a factor of 3.25 to adjust for decrease in activity due to storage; ND = No Activity Detected
Excerpt: as §1, §2, §3, §4, §5

SMILES | Specific Activity of Monooxygenase Enzymes Against Various Ketone Substrates, sp. CHX chnB [1] | Specific Activity of Monooxygenase Enzymes Against Various Ketone Substrates, sp. phi1 chnB [3] | other results
O=C1CCCCC1=O [1,2-cyclohexanedione] | 0.096 µmol/min/mg | 0.083 µmol/min/mg | Specific Activity of Monooxygenase Enzymes Against Various Ketone Substrates, sp. SE19 chnB [2]: 0.077 µmol/min/mg
O=C1CCCC(=O)C1 [1,3-cyclohexanedione] | 0.032 µmol/min/mg | – | –
O=C1CCCCC1c1ccccc1 (centres unmarked) [2-phenyl-cyclohexanone] | – | – | Specific Activity of Monooxygenase Enzymes Against Various Ketone Substrates, sp. phi2 chnB [4]: 0.730 µmol/min/mg
CCCCCCCCCCCC(C)=O [2-tridecanone] | 0.096 µmol/min/mg | 0.160 µmol/min/mg | –
O=C1CCCCCCCCC1 [Cyclodecanone] | 0.160 µmol/min/mg | 0.077 µmol/min/mg | Specific Activity of Monooxygenase Enzymes Against Various Ketone Substrates, sp. SE19 chnB [2]: 0.320 µmol/min/mg
O=C1CCCCCCCCCCC1 [Cyclododecanone] | 0.051 µmol/min/mg | – | –
O=C1CCCCCCC1 [Cyclooctanone] | 0.410 µmol/min/mg | – | –
O=C1CCCCCCCCCC1 [Cycloundecanone] | 0.058 µmol/min/mg | – | Specific Activity of Monooxygenase Enzymes Against Various Ketone Substrates, sp. SE19 chnB [2]: 0.064 µmol/min/mg; Specific Activity of Monooxygenase Enzymes Against Various Ketone Substrates, sp. BP2 chnB [5]: 0.064 µmol/min/mg; Specific Activity of Monooxygenase Enzymes Against Various Ketone Substrates, sp. phi2 chnB [4]: 0.051 µmol/min/mg
O=C1CC2CC[C@H]1C2 [Norcamphor] | – | – | Specific Activity of Monooxygenase Enzymes Against Various Ketone Substrates, sp. HCU chnB1 [6]: 0.410 µmol/min/mg
CCCCCCC(=O)CCCCCC [dihexyl ketone] | – | 0.160 µmol/min/mg | Specific Activity of Monooxygenase Enzymes Against Various Ketone Substrates, sp. HCU chnB2 [7]: 0.270 µmol/min/mg
C[S+](C)[O-] [dimethyl sulfoxide] | – | – | Specific Activity of Monooxygenase Enzymes Against Various Ketone Substrates, sp. HCU chnB1 [6]: 0.230 µmol/min/mg
